According to patent US12606533B2, “3-phenylpropylamine derivative” (DAIICHI SANKYO COMPANY, LIMITED, priority 2023, dated 2026):

How the values were obtained:
SF-1 = target: T1, SF-1 (Homo sapiens, UniProt Q13285); assay: SF1 degradation induction in NCI-H295R SF-1-HiBiT cells (HiBiT DC50); format: cell-based; conditions: 24 hr, concentration that induces 50% degradation of SF-1
T1 construct: NCI-H295R SF-1-HiBiT cells with HiBiT tag knocked in at the endogenous SF1 locus; host or cells: NCI-H295R SF-1-HiBiT (knock-in at endogenous locus)
Summary of the method: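 NCI-H295R cells carrying HiBiT-tagged SF-1, plated and grown 24 hr, then exposed to serially diluted compounds for 24 hr at 37° C. Remaining SF-1 read by lytic HiBiT luminescence; degradation rate from treated vs compound-free signal, DC50 as concentration giving 50% degradation.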

mouse uterus = assay: Inhibitory activity on normal mouse uterine weight (inhibitory action on estrogen activity); format: in vivo; conditions: female NSG mice, oral 100 mg/kg/day QD x 8, 24 hr after final administration, relative to vehicle control group
Protocol: Female NSG mice were purchased from Charles River Japan, Inc. From the day of grouping, each compound was orally administered at a dose of 100 mg/kg/day once a day for 8 consecutive days (QD×8). To the vehicle-control group was administered 0.5% methylcellulose. 24 hr after the final administration, the wet weight of the mouse uterus was measured, and the relative uterine weight (%) to the vehicle control group was calculated by the following formula.
The relative uterine weight (unit: %) of the compound corresponding to each Example No. to the vehicle control group is shown in Table 100.

[1] = test system: xenograft model derived from a prostate cancer patient; assay: Antitumor activity in human prostate cancer cell subcutaneous transplant model (patient-derived xenograft); format: in vivo, mouse; conditions: male NSG mice, oral 100 mg/kg/day QD x 28 to 32, day of completion of test
From the text: A xenograft model derived from a prostate cancer patient (obtained from the National Institute of Biomedical Innovation (NIBIO)) was used for antitumor evaluation. Tumors excised from seed mice were cut into about 4-5 mm squares and subcutaneously transplanted into the right flank of male NSG mice. On the fourth day after transplantation, the mice were divided into groups of 8 to 10 mice each to ensure uniformity of the seed mice. From the day of grouping, each compound was orally administered once a day at a dose of 100 mg/kg/day for 28 to 32 consecutive days (QD x 28 to 32). Individual estimated tumor volumes were measured from the day of grouping until the day after the final administration (the day of completion of test). To the vehicle-control group was administered 0.5% methylcellulose containing 21.3 mM mesylic acid.
The antitumor activity in the human prostate cancer cell subcutaneous transplant model was calculated by the following formula on the day of completion of each test.

NCI-H295R cells = assay: Proliferation inhibitory action on NCI-H295R (CellTiter-Glo, 7 days); format: cell-based, human; conditions: Homo sapiens, NCI-H295R, 168 h
Summary of the method: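 Compounds serially diluted in DMSO; cells seeded at 2×10^3 cells/well and cultured 7 days at 37° C, 5% CO2. CellTiter-Glo 2.0 luminescence read at day 0 and day 7; proliferation rate derived from compound-addition-day signal, untreated day-7 signal and treated day-7 signal.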

[2] = test system: NCI-H295R cell subcutaneous transplant model; assay: Antitumor activity against NCI-H295R cell subcutaneous transplant model (adrenocortical carcinoma); format: in vivo, mouse; conditions: female NSG mice, oral 30 mg/kg/day QD x 10 to 11, day the test was terminated
Protocol: NCI-H295R cells were subcutaneously transplanted at 1.0 to 2.0×10^7 cells/head into the right flank of female NSG mice and, when the estimated tumor volume (major axis×minor axis×minor axis/2) reached 100 to 300 mm^3, the mice were divided into groups of 4 to 5 mice each such that no difference was present between groups. Female NSG mice were purchased from Charles River Japan Co., Ltd. From the day of grouping, each compound was orally administered at a dose of 30 mg/kg/day once a day for 10 to 11 consecutive days (QD×10 to 11). Individual estimated tumor volumes were measured from the day of grouping until 11 to 12 days after grouping (the day the test was terminated). To the vehicle-control group was administered 0.5% methylcellulose containing 6.2-6.4 mM mesylic acid.
The antitumor activity against the NCI-H295R cell subcutaneous transplant model in Experimental Example 5 was calculated by the following formula on the day the test was terminated.

Q: Which DC50 (SF-1) does the source give for `COc1ccc([C@]2(CCN(Cc3ccc(C4=CC[C@H](CN5CCN(C(=O)c6ccc7c8c6CCCn8c(=O)n7C6CCC(=O)NC6=O)CC5)CC4)cc3)CC(C)(C)C(F)(F)F)CCOC(C)(C)C2)cc1` (stereo partly drawn) [AW5, 3-{7-[(4-{[(4R)-4′-{[{2-[(4R)-4-(4-Methoxyphenyl)-2,2-dimethyltetrahydro-2H-pyran-4-yl]ethyl)(3,3,3-trifluoro-2,2-dimethylpropyl)amino]methyl}-2,3,4,5-tetrahydro[biphenyl]-4-yl]methyl}piperazin-1-yl)carbonyl]-2-oxo-5,6-dihydro-4H-imidazo[4,5,1-ij]quinolin-1(2H)-yl}piperidine-2,6-dione] here?
A: The DC50 was 12 nM.

Q: What about the “relative uterine weight (%)” value (mouse uterus) of the same compound?
A: The value was 74%.

Q: What about the “tumor growth inhibition rate (%)” value [1] of the same compound?
A: Its value is 10%.

Q: And the GI50 (NCI-H295R cells)?
A: The GI50 was 85 nM.

Q: And the “tumor growth inhibition rate (%)” value [2]?
A: The value was 109%.

Q: With `COc1ccc([C@]2(CCN(Cc3ccc(C4=CC[C@H](C(=O)N5CCC(Nc6ccc7c8c6CCCn8c(=O)n7C6CCC(=O)NC6=O)CC5)CC4)c(F)c3)CC(C)(C)C(F)(F)F)CCOC(C)(C)C2)cc1` (stereo partly drawn) [BK9, 3-{7-[(1-{[(4R)-2′-Fluoro-4′-{[{2-[(4R)-4-(4-methoxyphenyl)-2,2-dimethyltetrahydro-2H-pyran-4-yl]ethyl)(3,3,3-trifluoro-2,2-dimethylpropyl)amino]methyl}-2,3,4,5-tetrahydro[biphenyl]-4-yl]carbonyl}piperidin-4-yl)amino]-2-oxo-5,6-dihydro-4H-imidazo[4,5,1-ij]quinolin-1(2H)-yl}piperidine-2,6-dione] as the compound, how does the DC50 (SF-1) read?
A: The DC50 was 3.2 nM.

Q: What about the “relative uterine weight (%)” value (mouse uterus) of the same compound?
A: Its value is 56%.

Q: And the “tumor growth inhibition rate (%)” value [1]?
A: The value was 43%.

Q: And the GI50 (NCI-H295R cells)?
A: Its GI50 is 24 nM.

Q: What about the “tumor growth inhibition rate (%)” value [2] of the same compound?
A: The value was 131%.

Q: Which DC50 (SF-1) does the source give for `COc1ccc([C@]2(CCN(Cc3ccc(C4=CC[C@H](CN5CCN(C(=O)c6ccc7c8c6NCCn8c(=O)n7C6CCC(=O)NC6=O)CC5)CC4)cc3)CC(C)(C)C(F)(F)F)CCOC(C)(C)C2)cc1` (stereo partly drawn) [BY7, 3-{7-[(4-{[(4R)-4′-{[{2-[(4R)-4-(4-Methoxyphenyl)-2,2-dimethyltetrahydro-2H-pyran-4-yl]ethyl)(3,3,3-trifluoro-2,2-dimethylpropyl)amino]methyl}-2,3,4,5-tetrahydro[biphenyl]-4-yl]methyl}piperazin-1-yl)carbonyl]-2-oxo-5,6-dihydro-4H-imidazo[1,5,4-de]quinoxalin-1(2H)-yl}piperidine-2,6-dione] here?
A: The DC50 was 7.3 nM.

Q: And the “relative uterine weight (%)” value (mouse uterus)?
A: Its value is 42%.

Q: What about the “tumor growth inhibition rate (%)” value [1] of the same compound?
A: The value was 38%.

Q: And the GI50 (NCI-H295R cells)?
A: Its GI50 is 54 nM.

Q: And the “tumor growth inhibition rate (%)” value [2]?
A: The value was 118%.
